Patent US4657927A, “Malonato platinum compounds” (Research Corporation, priority 1983, dated 1987)

What was measured:
[1] = Hydrolysis by U.V./vis spectral and conductivity studies; type: physicochemical; conditions: recrystallization from boiling water with malonic acid
From the text: *U.V./via spectral and conductivity studies have shown that hydrolysis is negligible.

L1210 = experiment: Confirmatory antitumor test at the National Cancer Institute, L1210 (Table IV); type: in vivo, Mice; conditions: daily injections days 1-9, i.p.
From the text: Samples of the malonato diammine and malonato ethylene diamine complexes of platinum(II) were submitted to the Drug Research and Development Branch of the National Cancer Institute for screening for antitumor activity against the L1210 tumor in mice. They confirm the activity of the compounds of the invention.

Sarcoma 180 [2] = experiment: Antitumor activity, solid sarcoma 180 tumor, T/C of tumor weights at day 10 (Table I); type: in vivo, female Swiss white mice; conditions: single i.p. injection day 1, slurry in H2O
Description: The compounds of the invention were tested for antitumor activity, i.e., for sensitivity to a planar dsp^2 platinum(II) coordination compound or an octahedral d^2 sp^3 platinum(IV) coordination compound using our standard screening tumor, solid sarcoma 180 tumor in female Swiss white mice, following standard protocols for this testing as set by the National Cancer Institute. (Cancer Chemotherapy Rep., 25 (1962)).
For these tests an S 180 tumor taken from a sacrificed mouse was disected free of superfluous tissue and cut under sterile conditions into approximately 10 milligram size pieces. These tissue pieces were then implanted by trocar in the left axillary region, subcutaneously, in new mice. The mice were, on the average, approximately four weeks old and weighed 18-20 grams. Taking day 0 as the day of implant, the animals were sacrificed on day 10. The tumors were excised and weighed and the ratio of the weights of the tumors in mice in the treated animals to the control set of animals was obtained. This ratio, multiplied by 100, is given as the T/C ratio in Table I.
For the first set of tests the coordination compound was freshly dissolved in sterile distilled water and injected intraperitoneally on day 1 into each of the test mice. The volume of the injection was usually 1/2 ml. In some cases, in order to get an active dose into the animal where the chemical was not soluble in this amount of solvent, a fine dispersion was prepared of the dose needed for the test. Thus, some of our test results were obtained on animals where a slurry of the compound was injected. These are so noted in Table I below. In addition, for some of the compounds, there was injected about 1 ml of solution, either in one single injection, or in 2 injections given a few hours apart of 1/2 ml each. These injections were initially given in 4 different dose levels for each new compound with 6 mice in each dose level. The tests covered a dose range from a low ineffective dose, to an upper dose level which produced some deaths within the time period of the experiment.

Sarcoma 180 [3] = experiment: Large Sarcoma 180 regressions, injection on day 8 (Table II); type: in vivo, female Swiss white mice; conditions: single i.p. injection on day 8, H2O solution
Description: In addition to the day 1 injections described above, in a number of case injections were delayed until day 8 of tumor growth. In these cases the tumor was usually at least larger than 1/2 gm, as estimated by palpation. The animals were then injected and observed for a period of approximately 60 days. Activity was measured by the number of animals whose tumors had regressed to the vanishing point, while still allowing the animal to survive for this time period. Such test results are described in TABLE II below.

O=C(O)CC(=O)O.[NH2-].[NH2-].[Pt+2] [Malonatodiammineplatinum (II), Malonatodiammineplatinum(II)]
hydrolysis [1]: negligible
% Increase in Lifespan (L1210; 12.5 mg/kg): 115%
% Increase in Lifespan (L1210; 25 mg/kg): 133%
% Increase in Lifespan (L1210; 50 mg/kg): 163%
No. of Deaths (Sarcoma 180 [2]; 10 mg/kg): 0
T/C (Sarcoma 180 [2]; 10 mg/kg): 76
No. of Deaths (Sarcoma 180 [2]; 15 mg/kg): 0
T/C (Sarcoma 180 [2]; 15 mg/kg): 38
No. of Deaths (Sarcoma 180 [2]; 20 mg/kg): 0
T/C (Sarcoma 180 [2]; 20 mg/kg): 64
No. of Deaths (Sarcoma 180 [2]; 25 mg/kg): 0
T/C (Sarcoma 180 [2]; 25 mg/kg): 31
No. of Deaths (Sarcoma 180 [2]; 30 mg/kg): 1/6
T/C (Sarcoma 180 [2]; 30 mg/kg): 7
No. of Deaths (Sarcoma 180 [2]; 40 mg/kg): 6/6
No. of Deaths (Sarcoma 180 [2]; 50 mg/kg): 5/6
T/C (Sarcoma 180 [2]; 50 mg/kg): 1
No. of Deaths (Sarcoma 180 [2]; 60 mg/kg): 6/6
Deaths (Sarcoma 180 [3]; 14 mg/kg): 4
Total Number of Regressions (Sarcoma 180 [3]; 14 mg/kg): 2
Deaths (Sarcoma 180 [3]; 16 mg/kg): 3
Total Number of Regressions (Sarcoma 180 [3]; 16 mg/kg): 3
Deaths (Sarcoma 180 [3]; 18 mg/kg): 2
Total Number of Regressions (Sarcoma 180 [3]; 18 mg/kg): 4
Deaths (Sarcoma 180 [3]; 20 mg/kg): 1
Total Number of Regressions (Sarcoma 180 [3]; 20 mg/kg): 5
